Patent US20240410831A1, “Multi-Mode Zinc-Selective Emission-Ratiometric Fluorescent Probes for Biological Application” (Georgia Tech Research Corporation, priority 2023, published 2024)

Columns and labels:
[1] = test system: live mouse fibroblast 3T3 cells; assay: Ratiometric imaging of labile Zn(II) by TPEM (excitation at 750 nm); type: cell-based
Experimental: With reference to FIG. 7A, emission-ratiometric imaging of labile Zn(II) pools in live mouse fibroblast 3T3 cells with Formula I, Formula II, and/or a derivative thereof (e.g., for example probe 8) by TPEM (excitation at 750 nm). (A) of FIG. 7A Left: The emission was collected with 520 nm-600 nm (BP2) and 440 nm-495 nm (BP1) bandpass filters respectively. Right: Intensity ratio images with R=BP2/BP1. (B) of FIG. 7A Left: Ratio images (BP2/BP1) before (prior to t=5 min) and after the addition of 50 μM ZnSO4 and 5.0 μM pyrithione. Addition of TPEN at t=15 min resulted the reversal of the initial of fluorescence ratio change. (C) of FIG. 7A Mean fluorescence ratio of the cytoplasmic region averaged over 10 cells (P values calculated for n=10 using a two-tailed test). (D) of FIG. 7A Time course of the average ratio change for the mean fluorescence ratio in the cytosol averaged over 10 cells.
To evaluate the Zn(II)-dependent ratiometric response of Formula I and/or Formula IA (e.g., for example probe 8) in live cells, imaging experiments were performed with live mouse fibroblasts (3T3) as model cell line.
In various embodiments, mouse fibroblast (3T3) cells were grown on poly-L-lysine treated glass bottom culture dishes (MatTek) to 90% confluency in DMEM growth media supplemented with 10% bovine calf serum, and 1% penicillin-streptomycin. Before imaging, the media was replaced with pre-warmed colorless serum-free DMEM (1% penicillin-streptomycin, and 1% sodium pyruvate) containing 1.0 μM of probe 8. The cells were incubated at 37° C. under an atmosphere of humidified air containing 5% CO2 for 15 mins. The incubation solution was replaced with prewarmed colorless serum free DMEM. Images were acquired at 37° C., 8% humidity, and 5% CO2 using a Zeiss LSM NLO 710 microscope equipped with a femtosecond pulsed Ti:sapphire laser and a blue 405 nm laser. Scanning fluorescence micrographs were acquired with excitation at 405 nm or 750 nm and the emission was simultaneously collected with bandpass ranges of 495-440 nm (BP1) and 600-520 nm (BP2). Image J was used to evaluate the change in fluorescence emission ratio over time as previously described. The emission ratio for each region of interest was averaged at each time point.
TPEN solid was fully dissolved in anhydrous DMSO to a concentration of 3.0 mM. The stock solution was further diluted to 1.0 mM in pre-warmed phenol-red-free DMEM media before each imaging experiments. The ZnSO4 stock solution was prepared in DI H2O and the pyrithione stock solution was prepared in anhydrous DMSO to a concentration of 3.0 mM. The stock solution of Zn(II)/pyrithione was prepared and diluted with phenol red free DMEM. To determine the limiting emission intensity ratios Rmin and Rmax, mouse fibroblast cells were supplemented with Zn(II)-pyrithione (50 μM ZnSO4 and 5.0 μM pyrithione), and then TPEN (100 μM).

[2] = Molar ratio titration with Zn(OTf)2 in methanol (absorption and fluorescence); type: physicochemical; conditions: for fluorescence emission maximum: excitation at 395 nm
Experimental: To prevent solution aggregation of the charge-neutral compounds exemplified by Formula I, Formula II, and/or a derivative thereof (e.g., for example probe 8) in PIPES buffer, the initial solution characterization was conducted in analytical grade MeOH. […] Consistent with an increased ground- and excited state polarization upon Zn(II) complexation, the absorption maximum is red-shifted by 34 nm from 376 nm to 410 nm. Sharp isosbestic points at 306 nm and 395 nm, as well as saturation at an equimolar Zn(II) concentration are indicative of a well-defined solution equilibrium involving only the free probe 8 and a discrete Zn(II)-complex with 1:1 metal-ligand stoichiometry.
Similarly, the fluorescence emission maximum of Formula I, Formula II, and/or a derivative thereof (e.g., for example probe 8) is red-shifted from 460 nm to 513 nm upon Zn(II)-binding. […] To provide a direct comparison with previous probes, probe 8 was also analyzed in aqueous buffer containing DMPC/DMPG liposomes that mimic the lipid bilayers present in cells.
A solution of Formula I, Formula II, and/or a derivative thereof (e.g., for example probe 8) (10 μM) in analytical grade MeOH prepared in a quartz cuvette with a 1-cm pathlength was titrated with Zn(OTf)2 (from a 0.3 mM aqueous stock solution) in 1.0 μM (0.1 molar equiv.) increments. After each aliquot of Zn(II), the solution was equilibrated for 1 minute by magnetic stirring, and an absorbance (spectral window: 250-500 nm) and fluorescence spectrum (excitation at 395 nm, spectral window 405-705 nm) were acquired. In another embodiment, a solution of Formula I, Formula II, and/or a derivative thereof (e.g., for example probe 8 in FIG. 4H) (10 PM) in Chelex®-PIPES buffer (10 mM, 0.1 M KCl, pH 7.0, 25° C.) containing 100 μM of liposomes (4:1 mixture of DMPC and DMPG) prepared in a quartz cuvette with a 1-cm pathlength was titrated with Zn(OTf)2 (from a 0.3 mM aqueous stock solution) in 1.0 μM (0.1 molar equiv.) increments. After each aliquot of Zn(II), the solution was equilibrated for 1 minute by magnetic stirring, and a fluorescence spectrum (excitation: 405 nm, spectral window 420-700 nm) was acquired.

[3] = Fluorometric Zn(II) titration in PIPES buffer with DMPC:DMPG liposomes; type: physicochemical; conditions: pH 7.0 buffer, 100 μM liposomes, excitation at 405 nm
Experimental: To investigate the capability of Formula I, Formula II, and/or a derivative thereof (e.g., for example probe 8) as a dual-mode excitable Zn(II)-selective fluorescent indicator, fluorometric Zn(II)-titrations were performed with excitation at 405 nm. Comprehensive spectroscopic analysis of Formula I, Formula II, and/or a derivative thereof (e.g., for example probe 8) was performed in the presence of liposomes as a biological model-membranes composed of a 4:1 ratio of zwitterionic dimyristoyl […] (DMPC) and anionic dimyristoyl phosphatidylglycerol (DMPG). The probe was directly diluted from a DMSO stock solution into the pH 7.0 buffer containing 100 μM liposomes. […]
A solution of Formula I, Formula II, and/or a derivative thereof (e.g., for example probe 8) (10 μM) in analytical grade MeOH prepared in a quartz cuvette with a 1-cm pathlength was titrated with Zn(OTf)2 (from a 0.3 mM aqueous stock solution) in 1.0 μM (0.1 molar equiv.) increments. After each aliquot of Zn(II), the solution was equilibrated for 1 minute by magnetic stirring, and an absorbance (spectral window: 250-500 nm) and fluorescence spectrum (excitation at 395 nm, spectral window 405-705 nm) were acquired. […] After each aliquot of Zn(II), the solution was equilibrated for 1 minute by magnetic stirring, and a fluorescence spectrum (excitation: 405 nm, spectral window 420-700 nm) was acquired.

With `COc1ccc2c(c1)C(C)(C)c1nc(-c3cccc(CN(Cc4ncccn4)Cc4ncccn4)n3)sc1-2` [probe 8] the cellular uptake ([1]; 3T3 cells, TPEM) was “readily internalized”, the “average fluorescence ratio R (BP2/BP1)” value ([1]; after 50 μM ZnSO4 and 5.0 μM pyrithione, TPEM 750 nm) was 1.35±0.16 and the “average fluorescence ratio R (BP2/BP1)” value ([1]; after TPEN, TPEM 750 nm) was 0.59±0.05. The “increase of fluorescence ratio” value ([1]; after Zn(II)/pyrithione against basal, TPEM 750 nm) was “more than 2 fold”, the “average fluorescence ratio R (BP2/BP1)” value ([1]; basal, 1.0 μM probe, TPEM 750 nm) was 0.59±0.06 and the “red shift of absorption maximum upon Zn(II) complexation” value [2] was 34 nm. The absorption maximum ([2]; Zn(II) complex) was 410 nm, the fluorescence emission maximum ([2]; Zn(II)-bound) was 513 nm and the absorption maximum ([2]; free probe, 10 μM) was 376 nm. For the same molecule, the fluorescence emission maximum ([2]; free probe) was 460 nm, the emission maximum ([3]; after Zn(II) addition) was 515 nm and the emission maximum ([3]; free probe) was 480 nm.
